Experimental data reported in patent US5532380A, “R,R,S,S-2-nitroimidazole derivatives” (Pola Chemical Industries, Inc., priority 1992, dated 1996).
Converted amounts (≈) assume the structure as drawn. Where two headings read alike, the source gives them in different places.

Legend:
hypoxic cell = settings: cited from earlier work
[1] = test system: breast carcinoma cell EMT6/KU; assay: In vitro hypoxic cell sensitization effect (colony formation, gamma-ray); format: cell-based, Balb/c mouse; settings: 1 mM test compound, EMT6/KU hypoxic cells, ratio of radiation amounts without/with compound
Description: The degree of the hypoxic cell radiosensitization effects of optical isomers of the present invention as compared with the racemate was studied by the in vitro assay.
Specifically, the radiosensitization effects were investigated using breast carcinoma cell EMT6/KU derived from Balb/c mouse. A hypoxic cell suspension was prepared from MEM suspension-containing EMT6/KU cells at a concentration 4×10^5 cells/ml by adding the test compound to a final concentration of 1 mM, and gently shaking it under a nitrogen gas stream containing 5% CO2 for one hour at room temperature. Gamma-ray was irradiated to the suspension and a radiation-survival rate curve was developed by the colony formation method. The sensitization rate was determined from this radiation-survival rate curve by dividing (i) the amount of radiation which decreases the survival rate of the hypoxic cells by 1% when no test compound was added by (ii) the amount of radiation which decreases the survival rate of the hypoxic cells by 1% when the test compound was added.

[2] = test system: EMT6/KU-cancerated Balb/c mouse; assay: In vivo-in vitro hypoxic cell sensitization effect (EMT6/KU tumour-bearing mouse, gamma-ray, colony forming method); settings: 200 mg/kg; 20 Gy gamma-ray 30 minutes thereafter
Description: The degree of the hypoxic cell radiosensitization effects of optical isomers of the present invention in in vivo-in vitro system was investigated in the same manner using the racemate as a control. Specifically, the radiosensitization effects were investigated using EMT6/KU-cancerated Balb/c mouse. 200 mg/kg of each test compound was administered and 20 Gy gamma-ray was irradiated 30 minutes thereafter. Carcinoma was extracted and treated with trypsin to prepare a cell suspension. The survival rate was determined by the colony forming method. A physiological saline solution was administered to the control.

[3] = Dissolution test (solubility); format: physicochemical; settings: for solubilities compared with SR-RS racemate: water and physiological saline
Description: Solubilities of SS, RR, SR, and RS isomers and SR-RS racemate in water and physiological saline were determined.

[4] = Octanol-phosphate partition coefficient; format: physicochemical; settings: for logD at 24 h: octanol/0.2 m phosphate buffer; for partition coefficient: average of 1.4 times and 0.7 times; for partition coefficient / partition coefficient at 0.7 times the solubility in octanol / partition coefficient at 1.4 times the solubility in octanol: 1440 min; for partition coefficient at 0.7 times the solubility in octanol / partition coefficient at 1.4 times the solubility in octanol: octanol/0.2 mol phosphate buffer pH 7.4, 20° C.; for partitioning toward the octanol layer: octanol-phosphate, pH 7.4
Description: The partition coefficient in the octanol-phosphate buffer solution system, which is indicative of the degree of orientation toward nerve tissues, was determined. […] To the weighed samples 10 ml of 0.2 mol phosphate buffer (pH 7.4), defined in the Pharmacopoeia of Japan, and 10 ml of octanol were added. The mixtures were shaken for 24 hours at 20° C. under light shielding. Octanol and phosphate layers were partitioned to determine the absorbance of each layer. […] The partition coefficients obtained were averaged to determine the partition coefficient of each sample.

[5] = Acute toxicity test (LD50/14), i.v. or i.p.; settings: mouse, in vivo
Excerpt: Test compounds, dissolved in physiological saline or a physiological saline solution containing 10% DMSO, were intravenously or intraperitoneally injected to ICR male mice, aged 5 weeks.

male ICR mice = settings: mouse, in vivo, iv
Description: The acute toxicity was determined using groups of male ICR mice, aged 5 weeks, each group consisting of five mice. Test compounds were dissolved in physiological saline and administered by injection through caudal vein. The death-survival determination was made 14 days after the administration.

[6] = physiological saline, read-out: Solubility in physiological saline
[7] = water, read-out: Solubility in water
[8] = pH 7.4, average of 1.4 times and 0.7 times, pH 7.4, 20° C., read-out: partition coefficient (converted)
[9] = pH 7.4, octanol/0.2 mol phosphate buffer pH 7.4, 20° C., 24 hours, 0.7 times, read-out: partition coefficient at 0.7 times the solubility in octanol (converted)
[10] = pH 7.4, octanol/0.2 mol phosphate buffer pH 7.4, 20° C., 24 hours, 1.4 times, read-out: partition coefficient at 1.4 times the solubility in octanol (converted)
[11] = intravenously or intraperitoneally, ICR male mice, 14 days

SMILES | Hypoxic cell sensitization rate [1] | Hypoxic cell survival rate [2] | solubility [3, 6] | solubility [3, 7] | logD at 24 h [4, 8] | logD at 24 h [4, 9] | logD at 24 h [4, 10] | solubilities compared with SR-RS racemate [3] | other results
O=[N+]([O-])c1nccn1CO[C@H](CO)[C@@H](O)CO (relative stereo) [SR-RS racemate, (1'RS,2'SR)-1-[(2',3'-dihydroxy-1' -hydroxymethyl)propoxy]methyl-2-nitroimidazole] | 1.7 | 0.08% | 40 mg/mL (≈ 162 mM) | 40 mg/mL (≈ 162 mM) | -1.33 | -1.24 | -1.43 | – | hypoxic cell radiosensitization effect compared with misonidazole (hypoxic cell): about the same degree of hypoxic cell radiosensitization effect as misonidazole
O=[N+]([O-])c1nccn1COC(CO)C(O)CO (single isomer, unassigned) [RS or SR isomer (rotation(+))] | 1.7 | 0.08% | 70 mg/mL (≈ 283 mM) | – | – | – | – | – | partition coefficient ([4]; pH 7.4, 20° C.): 0.056; partition coefficient at 0.7 times the solubility in octanol ([4]; 24 hours, 0.7 times): 0.059; partition coefficient at 1.4 times the solubility in octanol ([4]; 24 hours, 1.4 times): 0.053
O=[N+]([O-])c1nccn1COC(CO)C(O)CO (single isomer, unassigned) [RS or SR isomer (rotation(-))] | 1.7 | 0.08% | – | – | – | – | – | – | Solubility in physiological saline ([3]; physiological saline): 0.06 g/ml; partition coefficient ([4]; pH 7.4, 20° C.): 0.053; partition coefficient at 0.7 times the solubility in octanol ([4]; 24 hours, 0.7 times): 0.058; partition coefficient at 1.4 times the solubility in octanol ([4]; 24 hours, 1.4 times): 0.048
O=[N+]([O-])c1nccn1CO[C@H](CO)[C@@H](O)CO [Compound (3)] | – | – | – | – | – | – | – | – | LD50 at 336 h [5, 11]: 5900 mg/kg
O=[N+]([O-])c1nccn1CO[C@@H](CO)[C@H](O)CO [Compound (4)] | – | – | – | – | – | – | – | – | LD50 at 336 h [5, 11]: 5900 mg/kg
COCC(O)Cn1ccnc1[N+](=O)[O-] (stereo not drawn) [Misonidazole, reference compound] | – | – | – | – | -0.409 | -0.397 | -0.423 | – | –
O=[N+]([O-])c1nccn1CO[C@H](CO)[C@H](O)CO [RR isomer, (1'R,2'R)-1-[(2', 3'-dihydroxy-1'-hydroxymethyl)propoxy]methyl-2-nitroimidazole] | 1.8 | 0.07% | 870 mg/mL (≈ 3520 mM) | 740 mg/mL (≈ 2990 mM) | -1.6 | -1.59 | -1.62 | remarkably larger than that of SR-RS racemate | partitioning toward the octanol layer [4]: less partitioned toward the octanol layer; LD50 at 336 h [5]: 6000 mg/kg
O=[N+]([O-])c1nccn1CO[C@H](CO)[C@@H](O)CO [RS isomer] | – | – | – | – | – | – | – | remarkably larger than that of SR-RS racemate | –
O=[N+]([O-])c1nccn1CO[C@@H](CO)[C@H](O)CO [SR isomer] | – | – | – | – | – | – | – | remarkably larger than that of SR-RS racemate | –
O=[N+]([O-])c1nccn1CO[C@@H](CO)[C@@H](O)CO [SS isomer, (1'S,2'S)-1-[(2', 3'-dihydroxy-1'-hydroxymethyl)propoxy]methyl-2-nitroimidazole] | 1.8 | 0.07% | 820 mg/mL (≈ 3320 mM) | 850 mg/mL (≈ 3440 mM) | -1.55 | -1.51 | -1.59 | remarkably larger than that of SR-RS racemate | safety compared with other optically active isomers (male ICR mice): better safety than other optically active isomers; partitioning toward the octanol layer [4]: less partitioned toward the octanol layer; LD50 at 336 h [5]: 6000 mg/kg
